{
  "source": "paper PMC4922569",
  "about": "“Antifibrotic Effects of the Dual CCR2/CCR5 Antagonist Cenicriviroc in Animal Models of Liver and Kidney Fibrosis” (PLoS ONE, 2016)",
  "key": {"[1]": {"tested_on": "monocyte/macrophage recruitment", "assay": "Thioglycollate (TG)-induced mouse model of peritonitis: peritoneal lavage monocyte/macrophage counts", "type": "in vivo", "conditions": "for Decrease in peritoneal lavage monocyte/macrophage counts compared to vehicle control: 48 h post-TG", "procedure": "A murine thioglycollate (TG)-induced model of peritonitis, where acute inflammation induced by intraperitoneal (IP) injection of TG results in a rapid increase in monocyte/macrophage migration into the peritoneal cavity, was employed to assess the effects of CVC on cell recruitment in vivo. The protocol was approved by the IACUC of Charles River Laboratories Preclinical Services, Montreal (PCS-MTL). The care and use of animals was conducted in accordance with the guidelines of the US National Research Council and the Canadian Council on Animal Care.\nMale C57BL/6 mice (n = 44; 8–10 weeks of age; Charles River Laboratories, Canada) were allocated to receive treatments via oral gavage (PO) on Days 1–5 in the following groups: non-disease control, vehicle control twice daily (BID), CVC 5 mg/kg/day (CVC5) BID, CVC 20 mg/kg/day (CVC20) BID, CVC 100 mg/kg/day (CVC100) BID, CVC20 QD, and positive control dexamethasone (corticosteroid known to reduce inflammation in a variety of animal models) 1 mg/kg QD (S1 Table). On Day 4, peritonitis was induced via IP injection of TG 3.85% (1 mL/animal) 2 hours post-dose in all groups except non-disease controls. Study endpoints included: peritoneal lavage cell counts and pharmacokinetic (PK) evaluation. Animals were sacrificed 48 hours post-TG injection by isoflurane inhalation, and peritoneal lavage and blood samples (0.7 mL) were collected. Differential cell counts were assessed in peritoneal lavage samples using an Advia® Hematology System (Siemens Healthcare Diagnostics, USA) with multispecies software and an analysis software designed for mouse peritoneal fluid on Advia® 120 (LabThruPut, USA). A 0.3 mL aliquot of the blood sample was processed to plasma for PK analysis.\n(§1) In the peritonitis mouse model, one-way analysis of variance with post-hoc Dunnett’s test was performed, using GraphPad Prism® (GraphPad Software, Inc., USA), on differential cell counts obtained from lavage in treatment groups versus the vehicle-control group. For the ex vivo migration of mouse monocytes, statistical significance was determined by a Student’s t test."}, "[2]": {"tested_on": "CCL2-mediated chemotaxis of activated murine macrophages (F4/80+/CD11b+)", "assay": "Ex vivo CCL2-induced chemotaxis of activated mouse macrophages (Transwell)", "type": "cell-based", "conditions": "2 hours", "procedure": "Mouse monocyte migration in response to CVC treatment was assessed ex vivo in triplicate. TG was injected intraperitoneally into male C57BL/6 mice (n = 3; 8–10 weeks of age; Jackson Laboratory, USA) and activated macrophages were collected 48 hours later by peritoneal lavage. Chemotaxis was assayed using a Transwell® Chamber (Costar, USA) with a 5 μm-pore size polycarbonate filter, as previously described. Briefly, cells were incubated for 2 hours in the presence of 1 nM CCL2 and/or 1 μM CVC (dissolved in dimethyl sulfoxide with 0.5% acetic acid and diluted 1:1000 with serum-free Roswell Park Memorial Institute-1640 medium and 0.5% bovine serum albumin). Cells were harvested from the lower compartment and analyzed by flow cytometry to enumerate F4/80^+CD11b^+ macrophages using a 3-laser BD FACSCanto™ (BD Biosciences, Canada). Results were analyzed using FlowJo software (Tree Star Inc., USA).\nas §1"}, "[3]": {"assay": "Body and kidney weights and clinical condition, UUO model", "type": "in vivo", "conditions": "for Contralateral kidney weight / Final body weight / Obstructed kidney weight: UUO model, average±SEM", "procedure": "Male CD-1 mice (n = 51; 7–8 weeks of age; Charles River Laboratories, USA) were allocated to weight-matched treatment groups on Day -1 (1 day prior to either sham [one group] or permanent right UUO surgery [five groups] via aseptic laparotomy). From Days -1 to 4, mice received phosphate-buffered saline (PBS) IP QD, apart from a positive-control group, which received 1D11 (anti-TGF-beta1 antibody) 3 mg/kg IP QD. From Days 0 to 5, mice received vehicle control (sham surgery, UUO-control and UUO+positive-control groups) or CVC 7 mg/kg/day (CVC7), CVC20 or CVC100 PO BID (S1 Table). […] Study endpoints included: body and kidney weights, mRNA expression (TGF-beta, connective tissue growth factor, MCP-1, alpha-SMA, collagen 1a1, fibronectin-1 and collagen 3a1), extracellular matrix protein in renal cortical tissue (hydroxyproline content) and histological analyses. Blood and tissue samples were collected from anesthetized mice 4 hours post-dose on Day 5, prior to sacrifice. A mid-transverse section of the right obstructed kidney was collected for histological analysis.\nBody weight (measured before and during treatment) and sacrificed animal body and liver/kidney/spleen weights were recorded."}, "CCR2 on monocytes": {"tested_on": "CCR2 on monocytes", "parameters": "method as in earlier work", "conditions": "at 6 nmol/L; human PBMC ex vivo; cited from earlier work"}, "[4]": {"tested_on": "CCR5 on CD4+ and CD8+ T-cells", "parameters": "method as in earlier work", "conditions": "human PBMC ex vivo, cited from earlier work"}, "[5]": {"conditions": "in mice; cited from earlier work"}, "[6]": {"tested_on": "hepatic fibrosis scores (APRI, FIB-4, ELF)", "conditions": "cited from earlier work"}, "[7]": {"tested_on": "APAP-induced liver injury", "conditions": "cited from earlier work"}, "MCD-induced NASH": {"tested_on": "MCD-induced NASH", "conditions": "cited from earlier work"}, "[8]": {"conditions": "CVC100 PO BID, UUO surgery, group terminated due to poor clinical condition"}, "[9]": {"conditions": "between Baseline and Week 24, maintained at Week 48"}, "[10]": {"conditions": "acute APAP-induced liver injury"}},
  "note": "Structures can show the parent of a compound that is named as a salt.",
  "data": [
    {"molecule": "CCCCOCCOc1ccc(-c2ccc3c(c2)/C=C(/C(=O)Nc2ccc([S@@+]([O-])Cc4cncn4CCC)cc2)CCCN3CC(C)C)cc1", "note": "[CVC, cenicriviroc mesylate]", "values": [
      {"measurement": "Decrease in peritoneal lavage monocyte/macrophage counts compared to vehicle control", "setting": "[1]; CVC5 (5 mg/kg/day) BID PO Days 1-5", "value": 5.7, "unit": "%"},
      {"measurement": "Decrease in peritoneal lavage monocyte/macrophage counts compared to vehicle control", "setting": "[1]; CVC20 (20 mg/kg/day) BID PO Days 1-5", "value": 45.2, "unit": "%"},
      {"measurement": "Decrease in peritoneal lavage monocyte/macrophage counts compared to vehicle control", "setting": "[1]; CVC20 (20 mg/kg/day) QD PO Days 1-5", "value": 26.0, "unit": "%"},
      {"measurement": "Decrease in peritoneal lavage monocyte/macrophage counts compared to vehicle control", "setting": "[1]; CVC100 (100 mg/kg/day) BID PO Days 1-5", "value": 76.5, "unit": "%"},
      {"measurement": "Greater reduction in monocyte/macrophage count compared to dexamethasone", "setting": "[1]; CVC100 BID vs dexamethasone 1 mg/kg QD, p < 0.001", "value": 62.1, "unit": "%"},
      {"measurement": "Doses achieving statistically significant decrease in monocyte/macrophage recruitment", "setting": "[1]; p < 0.05 vs vehicle control", "value": "≥ 20", "unit": "mg/kg/day"},
      {"measurement": "Average fold change in migrating cells (±SD) compared to untreated and unstimulated cells", "setting": "[2]; CCL2-stimulated (1 nM) cells treated with CVC 1 μM", "value": "0.8±0.2", "unit": "fold"},
      {"measurement": "Average fold change in migrating cells (±SD) compared to untreated and unstimulated cells", "setting": "[2]; unstimulated cells treated with CVC 1 μM", "value": "0.7±0.4", "unit": "fold"},
      {"measurement": "Decrease in body weight vs UUO control", "setting": "[3]; CVC20, Day 5, p < 0.05", "value": 5, "unit": "%"},
      {"measurement": "Animals died prior to end of study", "setting": "[3]; [8]", "value": "6/9"},
      {"measurement": "Animals euthanized prior to end of study", "setting": "[3]; [8]", "value": "3/9"},
      {"measurement": "Contralateral kidney weight", "setting": "[3]; CVC 7 mg/kg/day", "value": "221.0 ± 10.1", "unit": "mg"},
      {"measurement": "Final body weight", "setting": "[3]; CVC 7 mg/kg/day", "value": "26.3 ± 0.5", "unit": "g"},
      {"measurement": "Obstructed kidney weight", "setting": "[3]; CVC 7 mg/kg/day", "value": "232.0 ± 11.9", "unit": "mg"},
      {"measurement": "Contralateral kidney weight", "setting": "[3]; CVC 20 mg/kg/day", "value": "202.4 ± 6.1", "unit": "mg"},
      {"measurement": "Final body weight", "setting": "[3]; CVC 20 mg/kg/day", "value": "25.7 ± 0.4", "unit": "g"},
      {"measurement": "Obstructed kidney weight", "setting": "[3]; CVC 20 mg/kg/day", "value": "217.0 ± 6.7", "unit": "mg"},
      {"measurement": "Receptor occupancy for CCR2 on monocytes", "setting": "CCR2 on monocytes", "value": "~ 98%"},
      {"measurement": "Receptor occupancy for CCR5 on CD8+ T-cells", "setting": "[4]; at 2.3 nmol/L", "value": "≥ 90", "unit": "%"},
      {"measurement": "Receptor occupancy for CCR5 on CD4+ T-cells", "setting": "[4]; at 3.1 nmol/L", "value": "≥ 90", "unit": "%"},
      {"measurement": "Half-life", "setting": "[5]", "value": "~ 2 hours"},
      {"measurement": "Enhanced liver fibrosis (ELF) scores", "setting": "[6]; Week 48, p < 0.0001", "value": "significant reduction"},
      {"measurement": "Decrease in proportion of subjects with APRI score ≥0.5", "setting": "[6]; [9]", "value": 75, "unit": "%"},
      {"measurement": "Decrease in proportion of subjects with FIB-4 score ≥1.45", "setting": "[6]; [9]", "value": 73, "unit": "%"},
      {"measurement": "Infiltration of Ly6Chi monocyte-derived macrophages into the liver", "setting": "[7]; APAP model, preliminary data", "value": "significantly decreased"},
      {"measurement": "ALT levels relative to vehicle control", "setting": "[7]; [10]", "value": "significant reduction"},
      {"measurement": "Necrotic area relative to vehicle control", "setting": "[7]; [10]", "value": "significant reduction"},
      {"measurement": "Infiltration of Ly6Chi monocyte-derived macrophages into the liver", "setting": "MCD-induced NASH; MCD model, preliminary data", "value": "significantly decreased"},
      {"measurement": "Hepatic fibrosis (Sirius red staining and hydroxyproline content)", "setting": "MCD-induced NASH; chronic MCD model of NASH", "value": "reduced"},
      {"measurement": "Steatohepatitis, assessed by histological NAFLD activity score", "setting": "MCD-induced NASH; chronic MCD model of NASH", "value": "significantly ameliorated"}
    ]}
  ]
}
